From US11718604B2, “4-amino-6-(1,3-benzodioxole)picolinates and their use as herbicides” (Dow AgroSciences LLC, priority 2018, dated 2023)

Experiments:
Assay type in all cases: in vivo
[1] = test system: ABUTH: velvetleaf (Abutilon theophrasti); assay: Post-emergent herbicidal test, velvetleaf; details: post-emergence, 336 h, 14 days after application, read-out: Visual Growth Reduction (%) 14 Days After Application ABUTH; for pest or weed control at 17.5 g/ha: 17.5 g ai/ha; for pest or weed control at 35 g/ha: 35 g ai/ha; for pest or weed control at 70 g/ha: 70 g ai/ha; for pest or weed control at 140 g/ha: 140 g ai/ha
Procedure, shortened: (§1)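 Post-emergence foliar spray, 187 L/ha, 1st–2nd true leaf plants; vehicle acetone/DMSO/IPA/water + Atplus 411F + Triton X-155; solvent-blank controls; subirrigated; 14 d greenhouse, visual % injury.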

[2] = test system: BRSNN: oilseed rape, canola (Brassica napus); assay: Post-emergent herbicidal test, oilseed rape; details: post-emergence, 336 h, 14 days after application, read-out: Visual Growth Reduction (%) 14 Days After Application BRSNN; for pest or weed control at 17.5 g/ha: 17.5 g ai/ha; for pest or weed control at 35 g/ha: 35 g ai/ha; for pest or weed control at 70 g/ha: 70 g ai/ha; for pest or weed control at 140 g/ha: 140 g ai/ha
Procedure, shortened: as §1

[3] = test system: CIRAR: Canada thistle (Cirsium arvense); assay: Post-emergent herbicidal test, Canada thistle; details: post-emergence, 336 h, 14 days after application, read-out: Visual Growth Reduction (%) 14 Days After Application CIRAR; for pest or weed control at 17.5 g/ha: 17.5 g ai/ha; for pest or weed control at 35 g/ha: 35 g ai/ha; for pest or weed control at 70 g/ha: 70 g ai/ha; for pest or weed control at 140 g/ha: 140 g ai/ha
Procedure, shortened: as §1

[4] = test system: EPHHL: wild poinsettia (Euphorbia heterophylla); assay: Post-emergent herbicidal test, wild poinsettia; details: post-emergence, 336 h, 14 days after application, read-out: Visual Growth Reduction (%) 14 Days After Application EPHHL; for pest or weed control at 17.5 g/ha: 17.5 g ai/ha; for pest or weed control at 35 g/ha: 35 g ai/ha; for pest or weed control at 70 g/ha: 70 g ai/ha; for pest or weed control at 140 g/ha: 140 g ai/ha
Procedure, shortened: as §1

[5] = test system: IPOHE: ivyleaf morningglory (Ipomoea hederacea); assay: Post-emergent herbicidal test, ivyleaf morningglory; details: post-emergence, 336 h, 14 days after application, read-out: Visual Growth Reduction (%) 14 Days After Application IPOHE; for pest or weed control at 17.5 g/ha: 17.5 g ai/ha; for pest or weed control at 35 g/ha: 35 g ai/ha; for pest or weed control at 70 g/ha: 70 g ai/ha; for pest or weed control at 140 g/ha: 140 g ai/ha
Procedure, shortened: as §1

[6] = test system: VIOTR: wild violet (Viola tricolor); assay: Post-emergent herbicidal test, wild violet; details: post-emergence, 336 h, 14 days after application, read-out: Visual Growth Reduction (%) 14 Days After Application VIOTR; for pest or weed control at 17.5 g/ha: 17.5 g ai/ha; for pest or weed control at 35 g/ha: 35 g ai/ha; for pest or weed control at 70 g/ha: 70 g ai/ha; for pest or weed control at 140 g/ha: 140 g ai/ha
Procedure, shortened: as §1

[7] = test system: CYPES: yellow nutsedge (Cyperus esculentus); assay: Post-emergent herbicidal test, yellow nutsedge; details: post-emergence, 336 h, 14 days after application, read-out: Visual Growth Reduction (%) 14 Days After Application CYPES; for pest or weed control at 17.5 g/ha: 17.5 g ai/ha; for pest or weed control at 35 g/ha: 35 g ai/ha; for pest or weed control at 70 g/ha: 70 g ai/ha; for pest or weed control at 140 g/ha: 140 g ai/ha
Procedure, shortened: as §1

[8] = test system: DIGSA: large crabgrass (Digitaria sanguinalis); assay: Post-emergent herbicidal test, large crabgrass; details: post-emergence, 336 h, 14 days after application, read-out: Visual Growth Reduction (%) 14 Days After Application DIGSA; for pest or weed control at 17.5 g/ha: 17.5 g ai/ha; for pest or weed control at 35 g/ha: 35 g ai/ha; for pest or weed control at 70 g/ha: 70 g ai/ha; for pest or weed control at 140 g/ha: 140 g ai/ha
Procedure, shortened: as §1

[9] = test system: ECHCG: barnyardgrass (Echinochloa crus-galli); assay: Post-emergent herbicidal test, barnyardgrass; details: post-emergence, 336 h, 14 days after application, read-out: Visual Growth Reduction (%) 14 Days After Application ECHCG; for pest or weed control at 17.5 g/ha: 17.5 g ai/ha; for pest or weed control at 35 g/ha: 35 g ai/ha; for pest or weed control at 70 g/ha: 70 g ai/ha; for pest or weed control at 140 g/ha: 140 g ai/ha
Procedure, shortened: as §1

[10] = test system: SETFA: giant foxtail (Setaria faberi); assay: Post-emergent herbicidal test, giant foxtail; details: post-emergence, 336 h, 14 days after application, read-out: Visual Growth Reduction (%) 14 Days After Application SETFA; for pest or weed control at 17.5 g/ha: 17.5 g ai/ha; for pest or weed control at 35 g/ha: 35 g ai/ha; for pest or weed control at 70 g/ha: 70 g ai/ha; for pest or weed control at 140 g/ha: 140 g ai/ha
Procedure, shortened: as §1

[11] = test system: SORVU: shattercane (Sorghum bicolor); assay: Post-emergent herbicidal test, shattercane; details: post-emergence, 336 h, 14 days after application, read-out: Visual Growth Reduction (%) 14 Days After Application SORVU; for pest or weed control at 17.5 g/ha: 17.5 g ai/ha; for pest or weed control at 35 g/ha: 35 g ai/ha; for pest or weed control at 70 g/ha: 70 g ai/ha; for pest or weed control at 140 g/ha: 140 g ai/ha
Procedure, shortened: as §1

## COC(=O)c1nc(-c2cccc3c2OC(F)(F)O3)c(F)c(N)c1Cl [Compound 4]
[1]
  pest or weed control at 17.5 g/ha: 70%
  pest or weed control at 35 g/ha: 80%
  pest or weed control at 70 g/ha: 80%
  pest or weed control at 140 g/ha: 85%
[2]
  pest or weed control at 17.5 g/ha: 85%
  pest or weed control at 35 g/ha: 90%
  pest or weed control at 70 g/ha: 95%
  pest or weed control at 140 g/ha: 95%
[3]
  pest or weed control at 17.5 g/ha: 80%
  pest or weed control at 35 g/ha: 90%
  pest or weed control at 70 g/ha: 95%
  pest or weed control at 140 g/ha: 90%
[4]
  pest or weed control at 17.5 g/ha: 0%
  pest or weed control at 35 g/ha: 0%
  pest or weed control at 70 g/ha: 0%
  pest or weed control at 140 g/ha: 0%
[5]
  pest or weed control at 17.5 g/ha: 0%
  pest or weed control at 35 g/ha: 10%
  pest or weed control at 70 g/ha: 10%
  pest or weed control at 140 g/ha: 30%
[6]
  pest or weed control at 17.5 g/ha: 0%
  pest or weed control at 35 g/ha: 0%
  pest or weed control at 70 g/ha: 20%
  pest or weed control at 140 g/ha: 35%
[7]
  pest or weed control at 17.5 g/ha: 0%
  pest or weed control at 35 g/ha: 20%
  pest or weed control at 70 g/ha: 50%
  pest or weed control at 140 g/ha: 50%
[8]
  pest or weed control at 17.5 g/ha: 0%
  pest or weed control at 35 g/ha: 0%
  pest or weed control at 70 g/ha: 0%
  pest or weed control at 140 g/ha: 0%
[9]
  pest or weed control at 17.5 g/ha: 0%
  pest or weed control at 35 g/ha: 0%
  pest or weed control at 70 g/ha: 0%
  pest or weed control at 140 g/ha: 0%
[10]
  pest or weed control at 17.5 g/ha: 0%
  pest or weed control at 35 g/ha: 0%
  pest or weed control at 70 g/ha: 0%
  pest or weed control at 140 g/ha: 0%
[11]
  pest or weed control at 17.5 g/ha: 0%
  pest or weed control at 35 g/ha: 0%
  pest or weed control at 70 g/ha: 0%
  pest or weed control at 140 g/ha: 0%

## Nc1c(F)c(-c2ccc(Cl)c3c2OC(F)(F)O3)nc(C(=O)O)c1Cl [Compound 14]
[1]
  pest or weed control at 17.5 g/ha: 43%
  pest or weed control at 35 g/ha: 53%
  pest or weed control at 70 g/ha: 73%
  pest or weed control at 140 g/ha: 80%
[2]
  pest or weed control at 17.5 g/ha: 90%
  pest or weed control at 35 g/ha: 95%
  pest or weed control at 70 g/ha: 98%
  pest or weed control at 140 g/ha: 100%
[3]
  pest or weed control at 17.5 g/ha: 78%
  pest or weed control at 35 g/ha: 83%
  pest or weed control at 70 g/ha: 85%
  pest or weed control at 140 g/ha: 90%
[4]
  pest or weed control at 17.5 g/ha: 0%
  pest or weed control at 35 g/ha: 0%
  pest or weed control at 70 g/ha: 0%
  pest or weed control at 140 g/ha: 10%
[5]
  pest or weed control at 17.5 g/ha: 3%
  pest or weed control at 35 g/ha: 3%
  pest or weed control at 70 g/ha: 8%
  pest or weed control at 140 g/ha: 13%
[6]
  pest or weed control at 17.5 g/ha: 5%
  pest or weed control at 35 g/ha: 13%
  pest or weed control at 70 g/ha: 43%
  pest or weed control at 140 g/ha: 58%
[7]
  pest or weed control at 17.5 g/ha: 0%
  pest or weed control at 35 g/ha: 10%
  pest or weed control at 70 g/ha: 30%
  pest or weed control at 140 g/ha: 50%
[8]
  pest or weed control at 17.5 g/ha: 0%
  pest or weed control at 35 g/ha: 0%
  pest or weed control at 70 g/ha: 0%
  pest or weed control at 140 g/ha: 5%
[9]
  pest or weed control at 17.5 g/ha: 0%
  pest or weed control at 35 g/ha: 0%
  pest or weed control at 70 g/ha: 0%
  pest or weed control at 140 g/ha: 5%
[10]
  pest or weed control at 17.5 g/ha: 0%
  pest or weed control at 35 g/ha: 0%
  pest or weed control at 70 g/ha: 0%
  pest or weed control at 140 g/ha: 0%
[11]
  pest or weed control at 17.5 g/ha: 0%
  pest or weed control at 35 g/ha: 3%
  pest or weed control at 70 g/ha: 13%
  pest or weed control at 140 g/ha: 30%
